What was measured:
Type in all cases: in vivo, BALB/c mice
[1] = tested on: mouse retina; experiment: Mouse retinal optical damage model, H&E histopathological evaluation of retina; settings: for morphology and thickness of the outer nuclear layer retina and inner nuclear layer retina (H&E): gavage once a day 10 days, vs model group, FIG. 5
Procedure: (§1) A self-made light box with a length of 108 cm, a width of 50 cm, and a height of 72 cm was used, and the light intensity was measured by a light meter to be 8,500-10,000 Lux. After eye examination, 60 mice with normal eyeballs were selected and randomly divided into a control group, a model group, a lutein group (100 mg/kg), a guaijaverin low-dose group (50 mg/kg), and a guaijaverin high-dose group (100 mg/kg), with 12 mice in each group. Lutein and guaijaverin were suspended in 5% sodium carboxymethylcellulose (CMC-Na) solution and administered by gavage once a day. The mice in the control and model groups were administered by gavage with an equal volume of 5% CMC-Na for 10 consecutive days. 10 days later, the mice in the model group, lutein group, guaijaverin low-dose group, and guaijaverin high-dose group were kept in the dark for 36 h, atropine eye gel was applied to both eyes of the mice to induce pupil dilation, and the mice were placed in the self-made lighting device of 8,000-10,000 Lux (the control group was raised in a normal environment) and given continuous light for 24 h. After the light exposure, the mice in each group had their eyeballs removed to draw blood and eyeball tissue collected for subsequent experimental tests.
(§2) Eyeball tissues of 6 mice were collected from each group for Hematoxylin-eosin staining (H&E) and TUNEL fluorescence staining of apoptotic cells, and the pathological changes of mouse eyeball tissues were observed using an optical microscope (completed by Wuhan Servicebio Biotechnology Co., Ltd.).
a) Dewaxing of paraffin sections to water: the sections were sequentially placed in environmental-friendly dewaxing solution I for 20 min, environmental-friendly dewaxing solution II for 20 min, anhydrous ethanol I for 5 min, anhydrous ethanol II for 5 min, and 75% alcohol for 5 min, and then wash with tap water.
b) Pretreatment: the sections were placed into H&E high-definition constant staining pretreatment solution for 1 min. […]
f) The sections were examined under a microscope and the images were collected and analyzed.

[2] = tested on: mouse retinal apoptotic cells; experiment: Mouse retinal optical damage model, TUNEL staining of retinal apoptotic cells; settings: for retinal cell apoptosis caused by light (TUNEL): gavage once a day 10 days, vs model group, FIG. 6
Procedure: as §1, §2
a) Dewaxing the paraffin sections to water: the sections were sequentially placed into environmental-friendly dewaxing solution I for 10 min, environmental-friendly dewaxing solution II for 10 min, environmental-friendly dewaxing solution III for 10 min, anhydrous ethanol I for 5 min, anhydrous ethanol II for 5 min, anhydrous ethanol III for 5 min and washed with distilled water.
b) Proteinase K repair: after the sections were slightly dried, a tissue pen was used to draw a circle around the tissue (to prevent the liquid from flowing away), a proteinase K working solution was added in the circle to cover the tissue, and incubated in a 37° C. incubator for 20 min. The slides were placed in PBS (PH=7.4) and washed 3 times on a decolorizing shaker, each time for 5 min. (Preparation method of proteinase K working solution, stock solution:PBS=1:9). […]
g) Sealing: the slides were placed in PBS (PH7.4) and washed on a decolorizing shaker for 3 times, 5 min each time. The sections were slightly spin-dried and mounted with anti-fluorescence fading mounting medium. […]

[3] = tested on: T-AOC; experiment: Mouse retinal optical damage model, plasma total antioxidant capacity (T-AOC); settings: gavage once a day 10 days, vs model group, FIG. 7
Procedure: as §1, with “After the light exposure, the mice in each group had their eyeballs removed to draw blood and eyeball tissue collected for subsequent experimental tests.” left out
The mouse blood was collected in an anticoagulant tube and centrifuged at 3,000 rpm for 10 min at 4° C. to collect the upper plasma. The T-AOC content was determined according to the method provided by the kit manufacturer.

[4] = tested on: IL-6; experiment: Mouse retinal optical damage model, plasma IL-6 level; settings: gavage once a day 10 days, vs model group, FIG. 8
Procedure: as §1, with “After the light exposure, the mice in each group had their eyeballs removed to draw blood and eyeball tissue collected for subsequent experimental tests.” left out
The mouse blood was collected in an anticoagulant tube and centrifuged at 3,000 rpm for 10 min at 4° C. to collect the upper plasma. The IL-6 content was determined according to the method provided by the kit manufacturer.

[5] = tested on: Heme Oxygenase-1 (HO-1 protein); experiment: Mouse retinal optical damage model, Western blot of HO-1 protein in retina; settings: high-dose 100 mg/kg, gavage once a day 10 days, vs model group, FIG. 9
Procedure: A self-made light box with a length of 108 cm, a width of 50 cm, and a height of 72 cm was used, and the light intensity was measured by a light meter to be 8,500-10,000 Lux. After eye examination, 60 mice with normal eyeballs were selected and randomly divided into a control group, a model group, a lutein group (100 mg/kg), a guaijaverin low-dose group (50 mg/kg), and a guaijaverin high-dose group (100 mg/kg), with 12 mice in each group. Lutein and guaijaverin were suspended in 5% sodium carboxymethylcellulose (CMC-Na) solution and administered by gavage once a day. The mice in the control and model groups were administered by gavage with an equal volume of 5% CMC-Na for 10 consecutive days. […]
The mouse retina was taken, and 100-150 μL of RIPA lysis buffer was added for every 10 mg of tissue. After sufficient lysis, the protein content was detected using a BCA protein quantification kit. […] The bands were analyzed by the supporting software of the red laser two-color imaging system, with GAPDH protein expression as an internal reference.

[6] = high-dose 100 mg/kg vs lutein 100 mg/kg

## O=c1c(O[C@@H]2OC[C@H](O)[C@H](O)[C@H]2O)c(-c2ccc(O)c(O)c2)oc2cc(O)cc(O)c12 [Guaijaverin, guaijaverin]
[1]; [6]
  anti-optical damage eye protection efficacy compared with lutein (H&E): better anti-optical damage eye protection efficacy than lutein
[1]; high-dose 100 mg/kg
  morphology and thickness of the outer nuclear layer retina and inner nuclear layer retina (H&E): increase the thickness of the outer nuclear layer retina and inner nuclear layer retina
[1]; low-dose 50 mg/kg
  morphology and thickness of the outer nuclear layer retina and inner nuclear layer retina (H&E): increase the thickness of the outer nuclear layer retina and inner nuclear layer retina
[2]; [6]
  protective effect on retinal cell apoptosis compared with lutein (TUNEL): better protective effect than lutein
[2]; high-dose 100 mg/kg
  retinal cell apoptosis caused by light (TUNEL): effectively improve retinal cell apoptosis caused by light
[2]; low-dose 50 mg/kg vs lutein 100 mg/kg
  protective effect on retinal cell apoptosis compared with lutein (TUNEL): comparable to that of the positive control lutein
[2]; low-dose 50 mg/kg
  retinal cell apoptosis caused by light (TUNEL): effectively improve retinal cell apoptosis caused by light
[3]; high-dose 100 mg/kg
  plasma T-AOC level: significantly increase the T-AOC level
[3]; low-dose 50 mg/kg
  plasma T-AOC level: significantly increase the T-AOC level
[4]; high-dose 100 mg/kg
  plasma level of IL-6: significantly reduce the level of IL-6
[4]; low-dose 50 mg/kg
  plasma level of IL-6: significantly reduce the level of IL-6
[5]
  expression of HO-1 protein in the retinal tissue: significantly reduced the expression of HO-1 protein
